In patent publication US6271369A, “Chimeric molecules targeted to viral RNAs” (priority 1997, dated 2001):

Tests used:
poly(A) = assay: UV absorbance-temperature profile (melting) of complex with poly(A); assay type: physicochemical; conditions: 40 mM KH2PO4 pH 7.0
Method: We also compared the melting temperature of poly (A) with the melting temperature of SEQ ID NO:1 (FIG. 4). For this experiment, 1000 μL of 3.2×10^-6 M poly(A) in KH2 PO4 buffer (pH 7.0, 40 mM) was mixed with 1000 μL of 2.9 ×10^-6 M SEQ ID NO:1 in KH2 PO4 buffer, and the resulting mixture was incubated at 4° overnight before determination of melting temperature. At/Ai refers to the ratio of absorbance (At) at a given temperature compared to the absorbance (Ai) at the initial temperature (25-30° ). No -attempt was made to determine complex stoichiometry (2- or 3-stranded). Under similar conditions, an equimolar mixture of poly(A) and oligo(dT)20 gave a complex with a Tm of 40° (data not shown).
The effect of the 2-5A moiety of SEQ ID NO:1 on the ability of the dT18 region to anneal with its complementary poly (A) sequence as determined from UV absorbance-temperature profiles is shown in FIG. 4.

TAR:A25 :vif RNA = assay: Primer-extension analysis of TAR:A25:vif RNA cleavage products; assay type: biochemical, HIV-1
Method: To determine the exact sites of cleavage of the TAR:A25 :vif RNA induced by SEQ ID NO:1, a primer-extension DNA synthesis reaction was performed on the RNA cleavage products with reverse transcriptase.
A primer extension assay was used as described by Driscoll, et al. (Cell, 58:519 (1989)) except that all four dNTPs were included. DNA sequencing of plasmid pSP6/TAR:A25 :vif was with the same primer using Sequenase version 2.0 (United States Biochemical) and ^35 S-dATP. The sequence of the primer was 5'-[…]-3'(SEQ ID NO:3). Results were reproduced from two separate sets of RNA cleavage reactions.
The cleavage sites of the RNA subjected to the RNA cleavage reactions described above were determined by comparing the migration of the primer extension products and DNA sequencing products performed with the same primer annealed to the plasmid containing the TAR:A25 :vif sequence. […] Previous reports indicate that unmodified 2-sA stimulates 2-5A-dependent RNase to cleave RNA on the 3'-side of UN sequences, where N stands for any nucleotide.

2-5A-dependent RNase = assay: Radiobinding (nitrocellulose filter) competition assay for 2-5A-dependent RNase in mouse liver extract; assay type: binding
Method: SEQ ID NO:1, SEQ ID NO:2, Chimeric Molecule 3, and Chimeric Molecule 4 were tested for their ability to bind to 2-5A-dependent RNase in vitro. The affinity of these 2-5A:AS constructs for 2-5A-dependent RNase was established with a highly specific radiobinding assay. This radiobinding assay measured the ability of 2-5A or 2-5A analogs to compete with a ^32 P-labeled 2-5A probe, ppp5'A2'p5'A2'p5'A2'p5'A3'-[^32 p]p5'C3'p, for binding to 2-5A-dependent RNase. The nitrocellulose filter binding assay of Knight et al. (Methods Enzymol. , 79: 216 (1981)) was used to measure the concentrations of 2-5A or the chimeric 2-5A:AS molecule required to compete with the radiolabeled probe, ppp5'A2'-p5'A2'p5'A2'p5A3'[^32 P]p5C3'p, for binding to 2-5A-dependentRNase in a mouse liver extract.
FIGS. 3A and 3B show the relative affinities of SEQ ID NO:1 (.tangle-solidup.) and 2-5A (ppp5'A2'p5'A2'p5'A) (.circle-solid.) for 2-5A-dependent RNase. A measure of 100% binding was found in the absence of any unlabeled oligonucleotide. The data for SEQ ID NO:1 and 2-5A in these figures represent the means and standard deviations from 6 and 7 assays, respectively.

Substance: p5'A2'(p5'A2')2 P5'A2'p1[OCH2 (CH2)2 CH2 O]4p1[OCH2 (CH2)2 CH2 O]4p5'pdT3'(p5'dt3')16 p5'dt (AAAATTTTTTTTTTTTTTTTTT; chemistry not fully specified) [SEQ ID NO:1]
- melting temperature (Tm) of complex with poly(A) (poly(A)): approximately 38 °C
- hypochromicity on mixing with poly(A) (poly(A); 3.2×10^-6 M poly(A) + 2.9×10^-6 M): 17%
- specific cleavage products / cleavage sites by primer extension (TAR:A25 :vif RNA): induced multiple cleavages within the oligo(rA) tract
- levels of intact RNA (full-length primer extension products) (TAR:A25 :vif RNA; after incubation in cell-free system): greatly reduced
- IC50 / ability to bind 2-5A-dependent RNase compared with unmodified 2-5A (2-5A-dependent RNase; compared with ppp5'A2'p5'A2'p5'A, FIG. 3A): very little, if any, decrease in the IC50
- binding affinity to 2-5A-dependent RNase when annealed to complementary sequence (2-5A-dependent RNase; mixed with excess poly(A), FIG. 3B): no significant change in the binding affinity
